94 compounds from ChEMBL document CHEMBL3507680, “University of Dundee, Gates Library screen for HepG2 cell viability” can be followed below.

This data set is described as follows: Human HepG2 cell viability assay in 384 well format. Format: toxicity, cell-based. To be noted: HepG2 cells, read-out: Inhibition. Details: dose 125 nL, time 70.5 hour; cytotoxicity at 70.5 h: concentration not given beside the values.

As to `CCOCCNC(=O)[C@@H]1CCCN1c1nccc(Nc2ccccc2)n1`, the cytotoxicity at 70.5 h is -1.64%. Take `CC1(C)CC(NC(=O)c2cnn(-c3ccccc3F)c2N)CC(C)(C)N1`: the cytotoxicity at 70.5 h stood at 19.7%.

On to `CN1CCC(N(C)C(=O)c2cnn(-c3ccccc3Br)c2N)CC1`, for which the cytotoxicity at 70.5 h came to 0.0189%.

As for `CC(=O)N1N=C(c2ccco2)OC1C(=O)NCCc1ccc(O)cc1` (centres undefined), the cytotoxicity at 70.5 h was -2.51%.

As for `CC(=O)N1N=C(c2ccncc2)OC1C(=O)N(C)CCc1ccccc1` (centres undefined), the cytotoxicity at 70.5 h was found to be 4.98%. Next, `CC(=O)N1N=C(c2ccco2)OC1C(=O)N(C)CCc1ccccc1` (centres undefined): 20.4%; `CC(=O)N1N=C(c2ccccc2)OC1C(=O)NCCN(C(C)C)C(C)C` (centres undefined): -6.17%; `CC(=O)N1N=C(c2ccccc2)OC1C(=O)NCC(=O)OC(C)(C)C` (centres undefined): -2.16%. Regarding `CC(=O)N1N=C(c2cccs2)OC1C(=O)Nc1ccccc1` (centres undefined), the cytotoxicity at 70.5 h was -8.33%. For `Cc1nc(-c2ccoc2)n(CC(=O)NCC(C)C)c1C`, the cytotoxicity at 70.5 h was 1.09%. Take `CN(C)CCN(C)c1cc(N2CCN(c3ccccn3)CC2)ncn1`: the cytotoxicity at 70.5 h came to 13.5%. With `CN(C)C(=O)c1cc2ncc(C(=O)NC3CCCC3)cc2n1C`, the cytotoxicity at 70.5 h was -0.145%. In the case of `Cc1csc2cc(C(=O)NC3CCCC3)cnc12`, the cytotoxicity at 70.5 h is 3.45%. As for `COCCN(CCOC)C(=O)c1cn(C(C)(C)C)c2ncccc12`, the cytotoxicity at 70.5 h worked out at 3.1%. Next, `CNC(=O)c1cn(C(C)(C)C)c2ncccc12`: -2.43%; `CC(C)(C)n1cc(C(=O)NCCN2CCOCC2)c2cccnc21`: 6.12%; `CCNC(=O)c1cn(C(C)(C)C)c2ncccc12`: -0.924%.

For `O=C(c1cn(Cc2ccccc2)c2ncccc12)N1CCCCC1`, the cytotoxicity at 70.5 h was 3.09%. As to `CCN1CCN(C(=O)c2cn(Cc3ccccc3)c3ncccc23)CC1`, the cytotoxicity at 70.5 h is -0.985%. As for `CN1CCCN(c2ncnc(N3CCOCC3)c2N)CC1`, the cytotoxicity at 70.5 h is -6.57%. Next, `CN(C)C(=O)c1cc(-c2ccccc2)[nH]n1`: -6.41%; `COc1c(C(=O)N2CCNC(=O)C2)cnc2c1c(C)nn2C`: 21%.

In the case of `NC1(CNC(=O)c2cc3ccccc3[nH]2)CCCC1`, the cytotoxicity at 70.5 h came out at 16%. For `Cn1c(C(=O)NCC2(N)CCCC2)cc2ccccc21` the value was 3.39%. As to `CN1CCC(NC(=O)c2cc(C3CCCCC3)nc3ccccc23)CC1`, the cytotoxicity at 70.5 h was -2.29%. For `CC(C)(O)CN1CCC(=O)N(Cc2ccco2)Cc2cc(F)ccc21` the value was 3.68%; for `CCOC(=O)[C@@H]1[C@@H](O)C(=O)N(C)C12CCN(C(=O)c1ccco1)CC2`, -4.06%.

Consider `CCS(=O)(=O)N1CC(=O)N(CCOc2ccccc2)CC(O)C1` (centres undefined), for which the cytotoxicity at 70.5 h was -2.23%. For `CC1(C)CN(CC(O)C(C)(C)C)C(=O)CN(C(=O)c2ccccc2)C1` (centres undefined) the value was -4.32%; for `CCOC(=O)[C@@H]1[C@@H](OC)C(=O)N(C)C12CCN(C(=O)C(CC)CC)CC2`, -7.55%. For `CCOC(=O)[C@H]1[C@@H](O)C(=O)N(C)C12CCN(C(=O)OCC)CC2`, the cytotoxicity at 70.5 h was found to be 0.864%. Take `CCOC(=O)[C@H]1[C@@H](O)C(=O)N(C)C12CCN(C(=O)CC(C)(C)C)CC2`: the cytotoxicity at 70.5 h is -6.45%. Next, `CCOC(=O)[C@H]1[C@@H](O)C(=O)N(C)C12CCN(C(=O)c1ccccc1)CC2`: -2.45%; `COCC1N(C(=O)N2CCOCC2)[C@H]2CC[C@]1(O)CC2` (some centres undefined): -1.43%. Consider `O=C(C1CCC1)N1C(CN2CCOCC2)[C@]2(O)CC[C@H]1CC2` (some centres undefined), for which the cytotoxicity at 70.5 h worked out at 13.5%. Next, `CN(C)C(=O)CN1C[C@H]2CCN(C(=O)C3CCCO3)CC[C@H]2S1(=O)=O` (some centres undefined): -4.76%; `Cc1nnc([C@@H]2C[C@H]3CN(C(=O)C4CC4)C[C@H]3O2)[nH]1`: -5.22%.

As for `CC1CCCCN1C(=O)c1nc2c(n1C(C)C)CCN(C(=O)C1CC1)C2` (centres undefined), the cytotoxicity at 70.5 h was -8.72%. For `CN(C)CC(=O)N1Cc2cc(-c3cc[nH]n3)ccc2C1c1cnco1` (centres undefined) the value was -1.64%; for `c1ccc(COCC2CNCc3nccn3C2)nc1` (centres undefined), 0.439%.

Take `O=C(c1cccnc1)N1Cc2[nH]nc(COCCO)c2C1`: the cytotoxicity at 70.5 h is -4.06%. Turning to `O=C(C1CCCO1)N1CC[C@@H]2CN(Cc3ccccc3)S(=O)(=O)[C@@H]2CC1` (some centres undefined), the cytotoxicity at 70.5 h was -6.03%. Next, `Cc1nnc([C@H]2C[C@@H]3CCN(C(=O)C4CCOCC4)C[C@H]3O2)[nH]1`: -9.85%. With `c1cn2c(n1)CNCC(COCC1CC1)C2` (centres undefined), the cytotoxicity at 70.5 h was -9.26%. Next, `CCN1CC2(CC1=O)CN(C(=O)C(C)C)CCN(S(C)(=O)=O)C2` (centres undefined): 19.5%; `COCCn1cnc(-c2cc(C(=O)NC(C)C)c3ccccn23)c1`: -6.05%.

As to `CC1N(CC2CC2)C(=O)COC12CCN(C(=O)c1ccno1)CC2` (centres undefined), the cytotoxicity at 70.5 h was -4.07%. For the compound `CC1N(CC2CC2)C(=O)COC12CCN(C(=O)c1cscn1)CC2` (centres undefined), the cytotoxicity at 70.5 h is -5.04%. Take `CC(=O)N1CCC(c2cc3c(ncn3C)c(-c3cnn(C)c3)n2)CC1`: the cytotoxicity at 70.5 h was -8.6%. For the compound `Cn1cccc1C(=O)NC[C@H]1C[C@@H]2CN(C(=O)c3ccno3)C[C@H]2O1`, the cytotoxicity at 70.5 h is -9.62%.

With `c1cnc(NCc2n[nH]c3c2CCN(Cc2cccnc2)C3)nc1`, the cytotoxicity at 70.5 h was -12.3%. Regarding `CCN1CC2(CC1=O)CN(C(=O)N(C)C)CCN(S(C)(=O)=O)C2` (centres undefined), the cytotoxicity at 70.5 h was -10.5%. Next, `CCN1CC2(CC1=O)CN(C(=O)COC)CCN(S(C)(=O)=O)C2` (centres undefined): -11%; `O[C@H]1CCN(CC2CCOC2)[C@H]1Cc1ccncc1` (some centres undefined): -11.6%; `CC(C)Nc1nc2c(c(NC3CC3)n1)CN(C(=O)c1ccnnc1)CC2`: 32.6%. Consider `O=C(C1CCSCC1)N1CC[C@H]2OCC[C@@]2(COCC2CC2)C1`, for which the cytotoxicity at 70.5 h is -6.06%. For `COc1cccc(-c2cnc3n2CCC32CCN(C(C)=O)CC2)c1` the value was -3.5%; for `COCC1CN(C(=O)[C@H]2CCCO2)Cc2nnn(CC3CC3)c21` (some centres undefined), -5.8%. For `Cc1nc(COCc2nc3c(o2)CN(C(=O)c2ccoc2)C3)cs1` the value was -7.05%. Consider `CC(C)N1CCC(c2ccnc3c(C(=O)N4CCOCC4)ncn23)CC1`, for which the cytotoxicity at 70.5 h is -5.36%.

`CN(C)C(=O)N1CC2(CCOCC2)c2cc(NC(=O)CCO)ccc21`: the cytotoxicity at 70.5 h was -0.169%. As to `CCOCC1CN(C(=O)N(C)C)Cc2nnn(CC3CC3)c21` (centres undefined), the cytotoxicity at 70.5 h stood at 4.98%. As for `CS(=O)(=O)N1Cc2nc(C(=O)NCc3ccccc3)oc2C1`, the cytotoxicity at 70.5 h was -5.1%.

On to `O=C(C1CCOCC1)N1C[C@@H]2OCCN(CCN3CCCC3)[C@@H]2C1`, for which the cytotoxicity at 70.5 h is -3.55%. For `CC(=O)NCC(=O)N1Cc2nc(COCc3csc(C)n3)oc2C1` the value was -8.19%; for `Cn1nnc2c1C(COCC1CC1)CN(C(=O)[C@H]1CCCO1)C2` (some centres undefined), 0%. Next, `CC(=O)NCC(=O)N1CCc2nc(-c3ccccc3)nc(C)c2CC1`: -5.16%; `C[C@@H]1C[C@H]2CN(C(=O)c3cccc4c3OCCO4)C[C@H]2O1`: -8.32%.

In the case of `CN(C)CC(=O)N1CC[C@H]2OCC[C@@]2(COCC2CC2)C1`, the cytotoxicity at 70.5 h was -11.9%. For `COc1cccc(CNC(=O)c2nc3c(o2)CN(S(C)(=O)=O)C3)c1` the value was -6.24%; for `CN(C)CCN1CCO[C@H]2CN(C(=O)C3CCOCC3)C[C@H]21`, -4.53%. For the compound `CCS(=O)(=O)N1C[C@@H](c2nnc(C)o2)C[C@H]2OCC[C@H]21`, the cytotoxicity at 70.5 h was -9.81%. Next, `Cn1nc(C(=O)N2CCCC2)c2c1CN(CC1CCOCC1)C2`: 4.3%; `Nc1nc(Nc2ccccc2)cc(N2CCNCC2)n1`: -3.76%. Consider `Cc1ncsc1C(=O)NCC1CCC2(CCNCC2)CO1` (centres undefined), for which the cytotoxicity at 70.5 h was -6.8%. As for `Nc1nc(C(=O)NCC2CCC3(CCNCC3)CO2)cs1` (centres undefined), the cytotoxicity at 70.5 h was -13.9%.

For `Cc1nc(COC[C@@H]2CC[C@H]3NCC[C@H]3O2)cs1`, the cytotoxicity at 70.5 h came out at 38.8%. For `CN(Cc1cccs1)C1CCC[C@@H]2CN(C(=O)c3cnccn3)C[C@H]12` (some centres undefined) the value was -7.78%.

`Cn1cc(-c2nc3c(cc2C(=O)O)CCN(C(=O)C2CC2)CC3)cn1`: the cytotoxicity at 70.5 h was -7.13%. Next, `Cc1oncc1C(=O)N1C[C@H]2CCCC(N(C)Cc3cccs3)[C@H]2C1` (some centres undefined): -8.63%.

With `N#Cc1cccc(N2CCCC3(C2)CN(c2ncc(F)cn2)CCO3)n1` (centres undefined), the cytotoxicity at 70.5 h amounted to 1.87%.

For the compound `CCN(CC)c1ncc2c(c1C(=O)O)CCN(C1CCOC1)C2` (centres undefined), the cytotoxicity at 70.5 h was 3.75%. Regarding `CN1CCC2(CCCN(C(=O)c3cncn3C)C2)CC1`, the cytotoxicity at 70.5 h was -7.82%.

Take `CN(Cc1ccco1)Cc1cnc2n1CCN(c1ncccn1)CC2`: the cytotoxicity at 70.5 h is -9.53%.

In the case of `O=C(c1ccccc1)N1CCO[C@@H]2CN(c3ncccn3)C[C@@H]2C1`, the cytotoxicity at 70.5 h is -6.94%. Turning to `Cn1nc(Cn2cccn2)c2c1CN(Cc1ccoc1)C2`, the cytotoxicity at 70.5 h is -3.73%. Regarding `O=C(NCc1ccco1)[C@@H]1COC[C@H]2CN(c3ncc(F)cn3)C[C@H]21`, the cytotoxicity at 70.5 h is -7.6%.

For `CN1CCN(c2ncc3c(c2C(=O)O)CCN(C2CCOC2)C3)CC1` (centres undefined), the cytotoxicity at 70.5 h was -7.02%. Next, `O=C(O)c1c(-c2ccncc2)ncc2c1CCN(C1CCOC1)C2` (centres undefined): -9.17%; `CCCN1CCc2[nH]nc(C(=O)N3CCNC(=O)C3)c2C1`: -2.77%. For `O=C(O)c1cc2c(nc1-c1ccsc1)CCN(C1CCOC1)CC2` (centres undefined) the value was -12.7%; for `N#Cc1cccc(N2CCCC3(CNCCO3)C2)n1` (centres undefined), -8.33%; for `O[C@H]1CCN(CC2CC2)[C@H]1Cc1ccncc1`, -4.14%. For `CN(C)CCN1CCO[C@H]2CN(C(=O)N(C)C)C[C@H]21` the value was 24.8%.
